± gives the standard deviation of the averaged measurements.
Tests used:
TIOGUANINE = compound: Nc1nc2[nH]cnc2c(=S)[nH]1 [TIOGUANINE]; assay: surviving fraction relative to DMSO-only wells; higher = less growth inhibition; settings: exposure time: 5 days
How it was run: (§1)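 Tumour cell lines were grown to log phase and seeded at 250–500 cells per well in 384-well plates. They were exposed continuously to inhibitors at 0.5, 1, 5, 10, 50, 100, 500 and 1000 nM for five days, beginning 24 hours after seeding. Surviving fraction is CellTiter-Glo luminescence normalised to the median of DMSO-only wells.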

MDV3100 [1] = compound: T1, CNC(=O)c1ccc(N2C(=S)N(c3ccc(C#N)c(C(F)(F)F)c3)C(=O)C2(C)C)cc1F [MDV3100]; assay: as above; settings: exposure time: 5 days
How it was run: as §1

[2] = compound: Cn1cc(C2=Nc3cc(NC(=O)C(N)C4CCCCC4)cc4c3C2=CNNC4=O)cn1; assay: as above; settings: exposure time: 5 days
How it was run: as §1

SNX-5422 [3] = compound: T2, CC1(C)CC(=O)c2c(C(F)(F)F)nn(-c3ccc(C(N)=O)c(N[C@H]4CC[C@H](OC(=O)CN)CC4)c3)c2C1 [SNX-5422]; assay: as above; settings: exposure time: 5 days
How it was run: as §1

BI-2536 [4] = compound: T3, CC[C@@H]1C(=O)N(C)c2cnc(Nc3ccc(C(=O)NC4CCN(C)CC4)cc3OC)nc2N1C1CCCC1 [BI-2536]; assay: as above; settings: exposure time: 5 days
How it was run: as §1

AFATINIB [5] = compound: T4, CN(C)C/C=C/C(=O)Nc1cc2c(Nc3ccc(F)c(Cl)c3)ncnc2cc1O[C@H]1CCOC1 [AFATINIB]; assay: as above; settings: exposure time: 5 days
How it was run: as §1

CANERTINIB [6] = compound: T5, C=CC(=O)Nc1cc2c(Nc3ccc(F)c(Cl)c3)ncnc2cc1OCCCN1CCOCC1 [CANERTINIB]; assay: as above; settings: exposure time: 5 days
How it was run: as §1

SAPACITABINE [7] = compound: T6, CCCCCCCCCCCCCCCC(=O)Nc1ccn([C@@H]2O[C@H](CO)[C@@H](O)[C@@H]2C#N)c(=O)n1 [SAPACITABINE]; assay: as above; settings: exposure time: 5 days
How it was run: as §1

MDV3100 [8] = compound: T1, MDV3100; assay: area under dose-response curve of surviving fraction (unscaled, Aref=0) (surviving fraction x log10(nM)); higher = more resistant; settings: exposure time: 5 days; dose range 0.5-1000 nM
How it was run: (§2)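 Surviving fractions were fitted by 3-parameter logistic regression in the drc R package to give dose-response survival curves. They came from tumour cell lines treated for five days with eight inhibitor concentrations from 0.5 to 1000 nM and read by CellTiter-Glo luminescence against DMSO-only wells. The area under the curve is the unscaled activity area. It was calculated over log10 dose with Aref = 0.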

[9] = compound: Cn1cc(C2=Nc3cc(NC(=O)C(N)C4CCCCC4)cc4c3C2=CNNC4=O)cn1; assay: as above; settings: exposure time: 5 days; dose range 0.5-1000 nM
How it was run: as §2

SNX-5422 [10] = compound: T2, SNX-5422; assay: as above; settings: exposure time: 5 days; dose range 0.5-1000 nM
How it was run: as §2

BI-2536 [11] = compound: T3, BI-2536; assay: as above; settings: exposure time: 5 days; dose range 0.5-1000 nM
How it was run: as §2

AFATINIB [12] = compound: T4, AFATINIB; assay: as above; settings: exposure time: 5 days; dose range 0.5-1000 nM
How it was run: as §2

CANERTINIB [13] = compound: T5, CANERTINIB; assay: as above; settings: exposure time: 5 days; dose range 0.5-1000 nM
How it was run: as §2

SAPACITABINE [14] = compound: T6, SAPACITABINE; assay: as above; settings: exposure time: 5 days; dose range 0.5-1000 nM
How it was run: as §2

How did the surviving fraction (TIOGUANINE; 0.5 nM) turn out when RDES SOFT TISSUE was run?
Its surviving fraction is 1.19 ± 0.17.

And the surviving fraction (TIOGUANINE; 1 nM)?
The surviving fraction was 1.42 ± 0.042.

What about the surviving fraction (TIOGUANINE; 5 nM) of the same test system?
Its surviving fraction is 1.33 ± 0.06.

And the surviving fraction (TIOGUANINE; 10 nM)?
The surviving fraction was 1.35 ± 0.13.

And the surviving fraction (TIOGUANINE; 50 nM)?
Its surviving fraction is 1.25 ± 0.17.

What about the surviving fraction (TIOGUANINE; 100 nM) of the same test system?
The surviving fraction was 1.19 ± 0.12.

What about the surviving fraction (TIOGUANINE; 500 nM) of the same test system?
Its surviving fraction is 1.07 ± 0.012.

What about the surviving fraction (TIOGUANINE; 1000 nM) of the same test system?
The surviving fraction was 1.28 ± 0.15.

What about the surviving fraction (MDV3100 [1]; 0.5 nM) of the same test system?
The surviving fraction was 1.25 ± 0.1.

And the surviving fraction (MDV3100 [1]; 1 nM)?
The surviving fraction was 1.07 ± 0.035.

What about the surviving fraction (MDV3100 [1]; 5 nM) of the same test system?
Its surviving fraction is 1.11 ± 0.064.

And the surviving fraction (MDV3100 [1]; 10 nM)?
Its surviving fraction is 1.15 ± 0.11.

What about the surviving fraction (MDV3100 [1]; 50 nM) of the same test system?
Its surviving fraction is 1.2 ± 0.086.

And the surviving fraction (MDV3100 [1]; 100 nM)?
Its surviving fraction is 1.12 ± 0.21.

What about the surviving fraction (MDV3100 [1]; 500 nM) of the same test system?
Its surviving fraction is 1.38 ± 0.074.

And the surviving fraction (MDV3100 [1]; 1000 nM)?
The surviving fraction was 1.25 ± 0.19.

What about the surviving fraction ([2]; 0.5 nM) of the same test system?
The surviving fraction was 1.12 ± 0.071.

And the surviving fraction ([2]; 1 nM)?
The surviving fraction was 0.961 ± 0.14.

What about the surviving fraction ([2]; 5 nM) of the same test system?
The surviving fraction was 0.953 ± 0.08.

And the surviving fraction ([2]; 10 nM)?
Its surviving fraction is 1.1 ± 0.21.

And the surviving fraction ([2]; 50 nM)?
Its surviving fraction is 0.776 ± 0.2.

What about the surviving fraction ([2]; 100 nM) of the same test system?
The surviving fraction was 1.08 ± 0.39.

What about the surviving fraction ([2]; 500 nM) of the same test system?
Its surviving fraction is 0.0493 ± 0.0045.

What about the surviving fraction ([2]; 1000 nM) of the same test system?
The surviving fraction was 0.0827 ± 0.011.

What about the surviving fraction (SNX-5422 [3]; 0.5 nM) of the same test system?
The surviving fraction was 1.13 ± 0.087.

And the surviving fraction (SNX-5422 [3]; 1 nM)?
The surviving fraction was 1.28 ± 0.15.

And the surviving fraction (SNX-5422 [3]; 5 nM)?
The surviving fraction was 1.07 ± 0.039.

And the surviving fraction (SNX-5422 [3]; 10 nM)?
The surviving fraction was 1.14 ± 0.19.

And the surviving fraction (SNX-5422 [3]; 50 nM)?
The surviving fraction was 0.459 ± 0.056.

What about the surviving fraction (SNX-5422 [3]; 100 nM) of the same test system?
The surviving fraction was 0.367 ± 0.053.

And the surviving fraction (SNX-5422 [3]; 500 nM)?
The surviving fraction was 0.056 ± 0.0095.

What about the surviving fraction (SNX-5422 [3]; 1000 nM) of the same test system?
The surviving fraction was 0.0543 ± 0.0085.

And the surviving fraction (BI-2536 [4]; 0.5 nM)?
Its surviving fraction is 1.05 ± 0.086.

What about the surviving fraction (BI-2536 [4]; 1 nM) of the same test system?
The surviving fraction was 1.11 ± 0.12.

And the surviving fraction (BI-2536 [4]; 5 nM)?
Its surviving fraction is 0.603 ± 0.18.

And the surviving fraction (BI-2536 [4]; 10 nM)?
The surviving fraction was 0.0407 ± 0.0038.

What about the surviving fraction (BI-2536 [4]; 50 nM) of the same test system?
Its surviving fraction is 0.034 ± 0.0036.

What about the surviving fraction (BI-2536 [4]; 100 nM) of the same test system?
The surviving fraction was 0.024 ± 0.001.

What about the surviving fraction (BI-2536 [4]; 500 nM) of the same test system?
Its surviving fraction is 0.0287 ± 0.0015.

What about the surviving fraction (BI-2536 [4]; 1000 nM) of the same test system?
Its surviving fraction is 0.0297 ± 0.0035.

And the surviving fraction (AFATINIB [5]; 0.5 nM)?
The surviving fraction was 1.33 ± 0.2.

And the surviving fraction (AFATINIB [5]; 1 nM)?
Its surviving fraction is 1.29 ± 0.15.

And the surviving fraction (AFATINIB [5]; 5 nM)?
Its surviving fraction is 1.17 ± 0.19.

And the surviving fraction (AFATINIB [5]; 10 nM)?
The surviving fraction was 1.3 ± 0.31.

What about the surviving fraction (AFATINIB [5]; 50 nM) of the same test system?
The surviving fraction was 0.988 ± 0.18.

And the surviving fraction (AFATINIB [5]; 100 nM)?
Its surviving fraction is 1.16 ± 0.19.

What about the surviving fraction (AFATINIB [5]; 500 nM) of the same test system?
The surviving fraction was 1.13 ± 0.22.

What about the surviving fraction (AFATINIB [5]; 1000 nM) of the same test system?
The surviving fraction was 1.11 ± 0.019.

What about the surviving fraction (CANERTINIB [6]; 0.5 nM) of the same test system?
Its surviving fraction is 0.774 ± 0.16.

What about the surviving fraction (CANERTINIB [6]; 1 nM) of the same test system?
The surviving fraction was 0.858 ± 0.12.

What about the surviving fraction (CANERTINIB [6]; 5 nM) of the same test system?
Its surviving fraction is 0.707 ± 0.049.

And the surviving fraction (CANERTINIB [6]; 10 nM)?
Its surviving fraction is 0.713 ± 0.19.

What about the surviving fraction (CANERTINIB [6]; 50 nM) of the same test system?
The surviving fraction was 0.903 ± 0.063.

And the surviving fraction (CANERTINIB [6]; 100 nM)?
The surviving fraction was 1.06 ± 0.14.

What about the surviving fraction (CANERTINIB [6]; 500 nM) of the same test system?
The surviving fraction was 1.09 ± 0.032.

And the surviving fraction (CANERTINIB [6]; 1000 nM)?
The surviving fraction was 0.921 ± 0.21.

And the surviving fraction (SAPACITABINE [7]; 0.5 nM)?
The surviving fraction was 0.706 ± 0.16.

What about the surviving fraction (SAPACITABINE [7]; 1 nM) of the same test system?
The surviving fraction was 0.765 ± 0.047.

And the surviving fraction (SAPACITABINE [7]; 5 nM)?
Its surviving fraction is 0.717 ± 0.13.

And the surviving fraction (SAPACITABINE [7]; 10 nM)?
Its surviving fraction is 0.629 ± 0.12.

And the surviving fraction (SAPACITABINE [7]; 50 nM)?
The surviving fraction was 0.919 ± 0.073.

And the surviving fraction (SAPACITABINE [7]; 100 nM)?
The surviving fraction was 0.984 ± 0.034.

What about the surviving fraction (SAPACITABINE [7]; 500 nM) of the same test system?
The surviving fraction was 0.779 ± 0.15.

And the surviving fraction (SAPACITABINE [7]; 1000 nM)?
The surviving fraction was 0.117 ± 0.052.

And the “area under dose-response curve” value (MDV3100 [8])?
The value was 3.91.

What about the “area under dose-response curve” value [9] of the same test system?
The value was 2.71.

What about the “area under dose-response curve” value (SNX-5422 [10]) of the same test system?
Its value is 2.11.

And the “area under dose-response curve” value (BI-2536 [11])?
The value was 1.09.

What about the “area under dose-response curve” value (AFATINIB [12]) of the same test system?
Its value is 3.88.

And the “area under dose-response curve” value (CANERTINIB [13])?
Its value is 2.83.

What about the “area under dose-response curve” value (SAPACITABINE [14]) of the same test system?
The value was 2.34.
